Experimental data taken from ChEMBL document CHEMBL3046556, “Microwave-assisted synthesis and antimicrobial screening of new imidazole derivatives bearing 4-thiazolidinone nucleus” (2013).
≈ marks a conversion by molar mass, not a printed value. Blank lines part the entries; values can stand above or below the compound they belong to. Calls of active or inactive are those of the source. The rule behind the calls is not given here.

Columns and labels:
Candida albicans = assay: Antifungal activity against Candida albicans MTCC 227 assessed as growth inhibition at 12.5 to 1000 ug/mL after 48 hr by broth dilution method; assay type: functional, organism-based
Pseudomonas aeruginosa = assay: Antibacterial activity against Pseudomonas aeruginosa MTCC 1688 assessed as growth inhibition at 12.5 to 1000 ug/mL after 24 hr by NCCLS broth dilution method; assay type: functional, organism-based
Escherichia coli [1] = assay: Antibacterial activity against Escherichia coli MTCC 443 assessed as growth inhibition at 12.5 to 1000 ug/mL after 24 hr by NCCLS broth dilution method; assay type: functional, organism-based
Aspergillus clavatus = assay: Antifungal activity against Aspergillus clavatus MTCC 1323 assessed as growth inhibition at 12.5 to 1000 ug/mL after 48 hr by broth dilution method; assay type: functional, organism-based
Staphylococcus aureus [2] = assay: Antibacterial activity against Staphylococcus aureus MTCC 96 assessed as growth inhibition at 12.5 to 1000 ug/mL after 24 hr by NCCLS broth dilution method; assay type: functional, organism-based
Aspergillus niger = assay: Antifungal activity against Aspergillus niger MTCC 282 assessed as growth inhibition at 12.5 to 1000 ug/mL after 48 hr by broth dilution method; assay type: functional, organism-based
Streptococcus pyogenes = assay: Antibacterial activity against Streptococcus pyogenes MTCC 442 assessed as growth inhibition at 12.5 to 1000 ug/mL after 24 hr by NCCLS broth dilution method; assay type: functional, organism-based
Staphylococcus aureus [3] = assay: Antibacterial activity against Staphylococcus aureus MTCC 96 assessed as growth inhibition after 24 hr by NCCLS broth dilution method; assay type: functional; conditions: MTCC 96, 24 h
Escherichia coli [4] = assay: Antibacterial activity against Escherichia coli MTCC 443 assessed as growth inhibition after 24 hr by NCCLS broth dilution method; assay type: functional; conditions: MTCC 443, 24 h

SMILES: CC(=O)c1ccc(N2C(=O)/C(=C\c3ccccc3C)N=C2C)cc1
- growth inhibition (GI) (Candida albicans): inactive
- growth inhibition (GI) (Pseudomonas aeruginosa): inactive
- growth inhibition (GI) (Escherichia coli [1]): inactive
- growth inhibition (GI) (Aspergillus clavatus): inactive
- growth inhibition (GI) (Staphylococcus aureus [2]): inactive
- growth inhibition (GI) (Aspergillus niger): inactive
- growth inhibition (GI) (Streptococcus pyogenes): inactive

- MIC (Staphylococcus aureus [3]): 1000 µg/mL (≈ 2990 µM)
- MIC (Escherichia coli [4]): 1000 µg/mL (≈ 2990 µM)
SMILES: COc1ccc(/C=C2/N=C(C)N(c3ccc(C(C)=O)cc3)C2=O)cc1
- growth inhibition (GI) (Candida albicans): inactive
- growth inhibition (GI) (Pseudomonas aeruginosa): inactive
- growth inhibition (GI) (Aspergillus clavatus): inactive
- growth inhibition (GI) (Aspergillus niger): inactive
- growth inhibition (GI) (Streptococcus pyogenes): inactive

SMILES: CC(=O)c1ccc(N2C(=O)/C(=C\c3ccccc3)N=C2C)cc1
- growth inhibition (GI) (Candida albicans): inactive
- growth inhibition (GI) (Pseudomonas aeruginosa): inactive
- growth inhibition (GI) (Escherichia coli [1]): inactive
- growth inhibition (GI) (Aspergillus clavatus): inactive
- growth inhibition (GI) (Staphylococcus aureus [2]): inactive
- growth inhibition (GI) (Aspergillus niger): inactive
- growth inhibition (GI) (Streptococcus pyogenes): inactive

SMILES: CC(=O)c1ccc(N2C(=O)/C(=C\c3ccccc3Cl)N=C2C)cc1
- growth inhibition (GI) (Candida albicans): inactive
- growth inhibition (GI) (Pseudomonas aeruginosa): inactive
- growth inhibition (GI) (Escherichia coli [1]): inactive
- growth inhibition (GI) (Aspergillus clavatus): inactive
- growth inhibition (GI) (Staphylococcus aureus [2]): inactive
- growth inhibition (GI) (Aspergillus niger): inactive
- growth inhibition (GI) (Streptococcus pyogenes): inactive

SMILES: CC1=N/C(=C/c2ccccc2Cl)C(=O)N1c1ccc(/C(C)=N/NC(N)=S)cc1
- growth inhibition (GI) (Candida albicans): Active
- growth inhibition (GI) (Pseudomonas aeruginosa): inactive
- growth inhibition (GI) (Escherichia coli [1]): inactive
- growth inhibition (GI) (Aspergillus clavatus): Active
- growth inhibition (GI) (Staphylococcus aureus [2]): inactive
- growth inhibition (GI) (Aspergillus niger): Active
- growth inhibition (GI) (Streptococcus pyogenes): inactive

SMILES: CC1=N/C(=C/c2ccccc2[N+](=O)[O-])C(=O)N1c1ccc(/C(C)=N/NC(N)=S)cc1
- growth inhibition (GI) (Candida albicans): Active
- growth inhibition (GI) (Pseudomonas aeruginosa): inactive
- growth inhibition (GI) (Escherichia coli [1]): inactive
- growth inhibition (GI) (Aspergillus clavatus): Active
- growth inhibition (GI) (Staphylococcus aureus [2]): inactive
- growth inhibition (GI) (Aspergillus niger): Active
- growth inhibition (GI) (Streptococcus pyogenes): inactive

SMILES: COc1ccccc1/C=C1/N=C(C)N(c2ccc(/C(C)=N/NC(N)=S)cc2)C1=O
- growth inhibition (GI) (Candida albicans): Active
- growth inhibition (GI) (Pseudomonas aeruginosa): inactive
- growth inhibition (GI) (Escherichia coli [1]): inactive
- growth inhibition (GI) (Aspergillus clavatus): Active
- growth inhibition (GI) (Staphylococcus aureus [2]): inactive
- growth inhibition (GI) (Aspergillus niger): Active
- growth inhibition (GI) (Streptococcus pyogenes): inactive

- MIC (Staphylococcus aureus [3]): 500 µg/mL (≈ 1280 µM)
- MIC (Escherichia coli [4]): 1000 µg/mL (≈ 2550 µM)
SMILES: CC1=N/C(=C/c2cccc(C)c2)C(=O)N1c1ccc(/C(C)=N/NC(N)=S)cc1
- growth inhibition (GI) (Candida albicans): Active
- growth inhibition (GI) (Pseudomonas aeruginosa): inactive
- growth inhibition (GI) (Aspergillus clavatus): Active
- growth inhibition (GI) (Aspergillus niger): Active
- growth inhibition (GI) (Streptococcus pyogenes): inactive

SMILES: CC1=N/C(=C/c2ccc([N+](=O)[O-])cc2)C(=O)N1c1ccc(/C(C)=N/NC(N)=S)cc1
- growth inhibition (GI) (Candida albicans): Active
- growth inhibition (GI) (Pseudomonas aeruginosa): inactive
- growth inhibition (GI) (Escherichia coli [1]): inactive
- growth inhibition (GI) (Aspergillus clavatus): Active
- growth inhibition (GI) (Staphylococcus aureus [2]): inactive
- growth inhibition (GI) (Aspergillus niger): Active
- growth inhibition (GI) (Streptococcus pyogenes): inactive

SMILES: CC1=N/C(=C/c2ccccc2C)C(=O)N1c1ccc(/C(C)=N/NC(N)=S)cc1
- growth inhibition (GI) (Candida albicans): Active
- growth inhibition (GI) (Pseudomonas aeruginosa): inactive
- growth inhibition (GI) (Escherichia coli [1]): inactive
- growth inhibition (GI) (Aspergillus clavatus): Active
- growth inhibition (GI) (Staphylococcus aureus [2]): inactive
- growth inhibition (GI) (Aspergillus niger): Active
- growth inhibition (GI) (Streptococcus pyogenes): inactive

SMILES: CC(=O)c1ccc(N2C(=O)/C(=C\c3ccc(Cl)cc3)N=C2C)cc1
- growth inhibition (GI) (Candida albicans): inactive
- growth inhibition (GI) (Pseudomonas aeruginosa): inactive
- growth inhibition (GI) (Escherichia coli [1]): inactive
- growth inhibition (GI) (Aspergillus clavatus): inactive
- growth inhibition (GI) (Staphylococcus aureus [2]): inactive
- growth inhibition (GI) (Aspergillus niger): inactive
- growth inhibition (GI) (Streptococcus pyogenes): inactive

SMILES: CC(=O)c1ccc(N2C(=O)/C(=C\c3cccc(C)c3)N=C2C)cc1
- growth inhibition (GI) (Candida albicans): inactive
- growth inhibition (GI) (Pseudomonas aeruginosa): inactive
- growth inhibition (GI) (Escherichia coli [1]): inactive
- growth inhibition (GI) (Aspergillus clavatus): inactive
- growth inhibition (GI) (Staphylococcus aureus [2]): inactive
- growth inhibition (GI) (Aspergillus niger): inactive
- growth inhibition (GI) (Streptococcus pyogenes): inactive

SMILES: CC(=O)c1ccc(N2C(=O)/C(=C\c3ccc(F)cc3)N=C2C)cc1
- growth inhibition (GI) (Candida albicans): inactive
- growth inhibition (GI) (Pseudomonas aeruginosa): inactive
- growth inhibition (GI) (Escherichia coli [1]): inactive
- growth inhibition (GI) (Aspergillus clavatus): inactive
- growth inhibition (GI) (Staphylococcus aureus [2]): inactive
- growth inhibition (GI) (Aspergillus niger): inactive
- growth inhibition (GI) (Streptococcus pyogenes): inactive

SMILES: CC(=O)c1ccc(N2C(=O)/C(=C\c3ccc([N+](=O)[O-])cc3)N=C2C)cc1
- growth inhibition (GI) (Candida albicans): inactive
- growth inhibition (GI) (Pseudomonas aeruginosa): inactive
- growth inhibition (GI) (Escherichia coli [1]): inactive
- growth inhibition (GI) (Aspergillus clavatus): inactive
- growth inhibition (GI) (Staphylococcus aureus [2]): inactive
- growth inhibition (GI) (Aspergillus niger): inactive
- growth inhibition (GI) (Streptococcus pyogenes): inactive

SMILES: CC(=O)c1ccc(N2C(=O)/C(=C\c3cccc(O)c3)N=C2C)cc1
- growth inhibition (GI) (Candida albicans): inactive
- growth inhibition (GI) (Pseudomonas aeruginosa): inactive
- growth inhibition (GI) (Escherichia coli [1]): inactive
- growth inhibition (GI) (Aspergillus clavatus): inactive
- growth inhibition (GI) (Staphylococcus aureus [2]): inactive
- growth inhibition (GI) (Aspergillus niger): inactive
- growth inhibition (GI) (Streptococcus pyogenes): inactive

SMILES: CC(=O)c1ccc(N2C(=O)/C(=C\c3ccccc3[N+](=O)[O-])N=C2C)cc1
- growth inhibition (GI) (Candida albicans): inactive
- growth inhibition (GI) (Pseudomonas aeruginosa): inactive
- growth inhibition (GI) (Escherichia coli [1]): inactive
- growth inhibition (GI) (Aspergillus clavatus): inactive
- growth inhibition (GI) (Staphylococcus aureus [2]): inactive
- growth inhibition (GI) (Aspergillus niger): inactive
- growth inhibition (GI) (Streptococcus pyogenes): inactive

SMILES: CC1=N/C(=C/c2ccc(F)cc2)C(=O)N1c1ccc(/C(C)=N/NC(N)=S)cc1
- growth inhibition (GI) (Candida albicans): Active
- growth inhibition (GI) (Pseudomonas aeruginosa): inactive
- growth inhibition (GI) (Escherichia coli [1]): inactive
- growth inhibition (GI) (Aspergillus clavatus): Active
- growth inhibition (GI) (Staphylococcus aureus [2]): inactive
- growth inhibition (GI) (Aspergillus niger): Active
- growth inhibition (GI) (Streptococcus pyogenes): inactive

SMILES: CC1=N/C(=C/c2ccc(Cl)cc2)C(=O)N1c1ccc(/C(C)=N/NC(N)=S)cc1
- growth inhibition (GI) (Candida albicans): Active
- growth inhibition (GI) (Pseudomonas aeruginosa): inactive
- growth inhibition (GI) (Escherichia coli [1]): inactive
- growth inhibition (GI) (Aspergillus clavatus): Active
- growth inhibition (GI) (Staphylococcus aureus [2]): inactive
- growth inhibition (GI) (Aspergillus niger): Active
- growth inhibition (GI) (Streptococcus pyogenes): inactive

SMILES: CC(=O)c1ccc(N2C(=O)/C(=C\c3ccccc3F)N=C2C)cc1
- growth inhibition (GI) (Candida albicans): inactive
- growth inhibition (GI) (Pseudomonas aeruginosa): inactive
- growth inhibition (GI) (Escherichia coli [1]): inactive
- growth inhibition (GI) (Aspergillus clavatus): inactive
- growth inhibition (GI) (Staphylococcus aureus [2]): inactive
- growth inhibition (GI) (Aspergillus niger): inactive
- growth inhibition (GI) (Streptococcus pyogenes): inactive

SMILES: CC1=N/C(=C/c2ccccc2)C(=O)N1c1ccc(/C(C)=N/NC(N)=S)cc1
- growth inhibition (GI) (Candida albicans): Active
- growth inhibition (GI) (Pseudomonas aeruginosa): inactive
- growth inhibition (GI) (Escherichia coli [1]): inactive
- growth inhibition (GI) (Aspergillus clavatus): Active
- growth inhibition (GI) (Staphylococcus aureus [2]): inactive
- growth inhibition (GI) (Aspergillus niger): Active
- growth inhibition (GI) (Streptococcus pyogenes): inactive

SMILES: CC1=N/C(=C/c2ccccc2F)C(=O)N1c1ccc(/C(C)=N/NC(N)=S)cc1
- growth inhibition (GI) (Candida albicans): Active
- growth inhibition (GI) (Pseudomonas aeruginosa): inactive
- growth inhibition (GI) (Escherichia coli [1]): inactive
- growth inhibition (GI) (Aspergillus clavatus): Active
- growth inhibition (GI) (Staphylococcus aureus [2]): inactive
- growth inhibition (GI) (Aspergillus niger): Active
- growth inhibition (GI) (Streptococcus pyogenes): inactive
